According to ChEMBL document CHEMBL3046089, “A study on the reactions of alkyl 4,6-bis(4-fluorophenyl)-2-oxocyclohex-3-ene-1-carboxylate and in vitro antioxidant activity of derivatives” (Med Chem Res, 2013):

Columns and labels:
[1] = Antioxidant activity assessed as concentration equivalent of 0.5 absorbance glutathione for potassium ferricyanide reduction after 20 min by spectrophotometric assay; assay type: functional
[2] = test system: Radical scavenging activity; assay: Antioxidant activity assessed as DPPH radical scavenging activity at 1 mg/ml after 20 min by spectrophotometric analysis; assay type: functional

Row | SMILES | Activity [1] [mg/mL] | Activity [2] [%]
1 | CCOC(=O)C1=C(N)C=C(c2ccc(F)cc2)CC1c1ccc(F)cc1 (stereo unspecified) | 25 | 68
2 | O=c1c2c(-c3ccc(F)cc3)cc(-c3ccc(F)cc3)cc2[nH]n1-c1ccccc1 | 5.55 | 95.2
3 | O=C1Nc2ccccc2Nc2cc(-c3ccc(F)cc3)cc(-c3ccc(F)cc3)c21 | 2.64 | 58.7
4 | COC(=O)c1c(OC)cc(-c2ccc(F)cc2)cc1-c1ccc(F)cc1 | 14.3 | 49.1
5 | O/N=C1/C=C(c2ccc(F)cc2)CC(c2ccc(F)cc2)C1 (stereo unspecified) | 4.54 | 89.2
6 | N[C@@H](CCC(=O)N[C@@H](CS)C(=O)NCC(=O)O)C(=O)O | 0.595 | 92.1
7 | CCOC(=O)c1c(OC)cc(-c2ccc(F)cc2)cc1-c1ccc(F)cc1 | 22.7 | 50.2
8 | CCOC(=O)C1/C(=N/NC(N)=O)C=C(c2ccc(F)cc2)CC1c1ccc(F)cc1 (stereo unspecified) | 8.33 | 66.5
9 | COC(=O)C1/C(=N/NC(N)=O)C=C(c2ccc(F)cc2)CC1c1ccc(F)cc1 (stereo unspecified) | 20 | 65.4
10 | N/N=C(N)/N=C1/C=C(c2ccc(F)cc2)CC(c2ccc(F)cc2)C1 (stereo unspecified) | 4.03 | 89.2
11 | O=c1[nH][nH]c2c1C(c1ccc(F)cc1)CC(c1ccc(F)cc1)=C2 (stereo unspecified) | 1.81 | 95.9
12 | COC(=O)C1=C(N)C=C(c2ccc(F)cc2)CC1c1ccc(F)cc1 (stereo unspecified) | 5.55 | 40.9
13 | O=c1c2c([nH]n1-c1ccc([N+](=O)[O-])cc1)C=C(c1ccc(F)cc1)CC2c1ccc(F)cc1 (stereo unspecified) | 3.52 | 94.4
